# Source: patent US20260144788A1, “COMPOUND FOR SHP2 PROTEIN DEGRADATION AND MEDICAL USES THEREOF” (UBIX THERAPEUTICS, INC., priority 2022, published 2026)
# Target: T1, SHP2 protein (Homo sapiens, UniProt Q06124)
# T1 sequence (Q06124 1-593): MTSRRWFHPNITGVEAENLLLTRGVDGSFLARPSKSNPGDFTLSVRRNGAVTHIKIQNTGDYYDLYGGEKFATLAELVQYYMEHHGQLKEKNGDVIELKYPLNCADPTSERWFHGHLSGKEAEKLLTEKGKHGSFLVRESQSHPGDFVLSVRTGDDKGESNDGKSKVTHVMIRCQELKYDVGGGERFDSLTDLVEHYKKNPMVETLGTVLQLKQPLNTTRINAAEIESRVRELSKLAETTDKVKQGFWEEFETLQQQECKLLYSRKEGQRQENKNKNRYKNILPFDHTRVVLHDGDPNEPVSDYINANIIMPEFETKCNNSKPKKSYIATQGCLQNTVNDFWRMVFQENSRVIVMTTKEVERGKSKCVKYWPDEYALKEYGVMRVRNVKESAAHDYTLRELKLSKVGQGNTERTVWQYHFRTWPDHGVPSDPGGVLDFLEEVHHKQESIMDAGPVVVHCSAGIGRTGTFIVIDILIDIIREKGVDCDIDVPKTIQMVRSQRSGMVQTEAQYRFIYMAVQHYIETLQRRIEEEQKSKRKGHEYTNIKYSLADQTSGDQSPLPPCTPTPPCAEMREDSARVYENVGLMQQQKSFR
# Experiment: Measurement of SHP2 protein degradation in MV-4-11 cells (western blotting)
# Type: cell-based
# Design: endogenous in cells
# Settings: harvested after 24 hours
# How it was run: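 MV-4-11 cells in IMDM/5% FBS were exposed to compound at final 0.01, 0.1, 1 μM or 0.001, 0.01, 0.1 μM for 24 h, DMSO as negative control. BCA-normalised lysates were immunoblotted for SHP2 with GAPDH as loading control, read on LI-COR Odyssey.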
SHP2% degradation (0.01 μM) [%],SHP2% degradation (0.1 μM) [%],Compound
97.0,99.8,"CC(=O)N[C@H](C(=O)N1C[C@H](O)C[C@H]1C(=O)NCc1ccc(-c2scnc2C)cc1OC1CCN(C(=O)[C@H]2C[C@@H](Nc3nccc(Sc4cnc(N5CCC(C)(CN)CC5)cn4)c3Cl)C2)CC1)C(C)(C)C [Example 74, (2S,4R)-1-((S)-2-acetamido-3,3-dimethylbutanoyl)-N-(2-((1-((1S,3R)-3-((4-((5-(4-(aminomethyl)-4-methylpiperidin-1-yl)pyrazin-2-yl)thio)-3-chloropyridin-2-yl)amino)cyclobutanecarbonyl)piperidin-4-yl)oxy)-4-(4-methylthiazol-5-yl)benzyl)-4-hydroxypyrrolidine-2-carboxamide]"
97.0,99.3,"CC(=O)N[C@H](C(=O)N1C[C@H](O)C[C@H]1C(=O)NCc1ccc(-c2scnc2C)cc1OC1CCN(C(=O)C2CCN(c3nccc(Sc4cnc(N5CCC(C)(CN)CC5)cn4)c3Cl)CC2)CC1)C(C)(C)C [Example 75, (2S,4R)-1-((S)-2-acetamido-3,3-dimethylbutanoyl)-N-(2-((1-(1-(4-((5-(4-(aminomethyl)-4-methylpiperidin-1-yl)pyrazin-2-yl)thio)-3-chloropyridin-2-yl)piperidine-4-carbonyl)piperidin-4-yl)oxy)-4-(4-methylthiazol-5-yl)benzyl)-4-hydroxypyrrolidine-2-carboxamide]"
81.9,99.9,"Cc1ncsc1-c1ccc([C@H](C)NC(=O)[C@@H]2C[C@@H](O)CN2C(=O)[C@@H](NC(=O)C2(F)CC2)C(C)(C)C)c(OC2CCN(C(=O)C3CCN(c4nccc(Sc5cnc(N6CCC(C)(CN)CC6)cn5)c4Cl)CC3)CC2)c1 [Example 86, (2S,4R)—N—((S)-1-(2-((1-(1-(4-((5-(4-(aminomethyl)-4-methylpiperidin-1-yl)pyrazin-2-yl)thio)-3-chloropyridin-2-yl)piperidine-4-carbonyl)piperidin-4-yl)oxy)-4-(4-methylthiazol-5-yl)phenyl)ethyl)-1-((S)-2-(1-fluorocyclopropane-1-carboxamido)-3,3-dimethylbutanoyl)-4-hydroxypyrrolidine-2-carboxamide]"
95.8,100.0,"CC(=O)N[C@H](C(=O)N1C[C@H](O)C[C@H]1C(=O)N[C@@H](C)c1ccc(-c2scnc2C)cc1OC1CCN(C(=O)C2CCN(c3nccc(Sc4cnc(N5CCC(C)(CN)CC5)cn4)c3Cl)CC2)CC1)C(C)(C)C [Example 87, (2S,4R)-1-((S)-2-acetamido-3,3-dimethylbutanoyl)-N—((S)-1-(2-((1-(1-(4-((5-(4-(aminomethyl)-4-methylpiperidin-1-yl)pyrazin-2-yl)thio)-3-chloropyridin-2-yl)piperidine-4-carbonyl)piperidin-4-yl)oxy)-4-(4-methylthiazol-5-yl)phenyl)ethyl)-4-hydroxypyrrolidine-2-carboxamide]"

# Further lines, the compound ahead of its results:
Compound,SHP2% degradation (0.01 μM) [%],SHP2% degradation (0.1 μM) [%]
"Cc1ncsc1-c1ccc(CNC(=O)[C@@H]2C[C@@H](O)CN2C(=O)[C@@H](NC(=O)C2(F)CC2)C(C)(C)C)c(OC2CCN(C(=O)C3CCN(c4nccc(Sc5cnc(N6CCC(C)(CN)CC6)cn5)c4Cl)CC3)CC2)c1 [Example 65, (2S,4R)—N-(2-((1-(1-(4-((5-(4-(aminomethyl)-4-methylpiperidin-1-yl)pyrazin-2-yl)thio)-3-chloropyridin-2-yl)piperidine-4-carbonyl)piperidin-4-yl)oxy)-4-(4-methylthiazol-5-yl)benzyl)-1-((S)-2-(1-fluorocyclopropane-1-carboxamido)-3,3-dimethylbutanoyl)-4-hydroxypyrrolidine-2-carboxamide]",85.2,98.1
"Cc1ncsc1-c1ccc(CNC(=O)[C@@H]2C[C@@H](O)CN2C(=O)[C@@H](NC(=O)C2(F)CC2)C(C)(C)C)c(OC2CCN(C(=O)C3CCN(c4nccc(Sc5cnc(N6CCC(C)(N)CC6)cn5)c4Cl)CC3)CC2)c1 [Example 66, (2S,4R)—N-(2-((1-(1-(4-((5-(4-amino-4-methylpiperidin-1-yl)pyrazin-2-yl)thio)-3-chloropyridin-2-yl)piperidine-4-carbonyl)piperidin-4-yl)oxy)-4-(4-methylthiazol-5-yl)benzyl)-1-((S)-2-(1-fluorocyclopropane-1-carboxamido)-3,3-dimethylbutanoyl)-4-hydroxypyrrolidine-2-carboxamide]",78.6,99.6
"Cc1ncsc1-c1ccc(CNC(=O)[C@@H]2C[C@@H](O)CN2C(=O)[C@@H](NC(=O)C2(F)CC2)C(C)(C)C)c(OC2CCN(C(=O)C3(C)CCN(c4nccc(Sc5cnc(N6CCC(C)(CN)CC6)cn5)c4Cl)CC3)CC2)c1 [Example 68, (2S,4R)—N-(2-((1-(1-(4-((5-(4-(aminomethyl)-4-methylpiperidin-1-yl)pyrazin-2-yl)thio)-3-chloropyridin-2-yl)-4-methylpiperidine-4-carbonyl)piperidin-4-yl)oxy)-4-(4-methylthiazol-5-yl)benzyl)-1-((S)-2-(1-fluorocyclopropane-1-carboxamido)-3,3-dimethylbutanoyl)-4-hydroxypyrrolidine-2-carboxamide]",−22.1,95.7
"Cc1ncsc1-c1ccc(CNC(=O)[C@@H]2C[C@@H](O)CN2C(=O)[C@@H](NC(=O)C2(F)CC2)C(C)(C)C)c(OC2CCN(C(=O)C3(F)CCN(c4nccc(Sc5cnc(N6CCC(C)(CN)CC6)cn5)c4Cl)CC3)CC2)c1 [Example 69, (2S,4R)—N-(2-((1-(1-(4-((5-(4-(aminomethyl)-4-methylpiperidin-1-yl)pyrazin-2-yl)thio)-3-chloropyridin-2-yl)-4-fluoropiperidine-4-carbonyl)piperidin-4-yl)oxy)-4-(4-methylthiazol-5-yl)benzyl)-1-((S)-2-(1-fluorocyclopropane-1-carboxamido)-3,3-dimethylbutanoyl)-4-hydroxypyrrolidine-2-carboxamide]",19.9,99.8
"Cc1ncsc1-c1ccc(CNC(=O)[C@@H]2C[C@@H](O)CN2C(=O)[C@@H](NC(=O)C2(F)CC2)C(C)(C)C)c(OC2CCN(C(=O)C3(O)CCN(c4nccc(Sc5cnc(N6CCC(C)(CN)CC6)cn5)c4Cl)CC3)CC2)c1 [Example 70, (2S,4R)—N-(2-((1-(1-(4-((5-(4-(aminomethyl)-4-methylpiperidin-1-yl)pyrazin-2-yl)thio)-3-chloropyridin-2-yl)-4-hydroxypiperidine-4-carbonyl)piperidin-4-yl)oxy)-4-(4-methylthiazol-5-yl)benzyl)-1-((S)-2-(1-fluorocyclopropane-1-carboxamido)-3,3-dimethylbutanoyl)-4-hydroxypyrrolidine-2-carboxamide]",84.5,99.9
"Cc1ncsc1-c1ccc(CNC(=O)[C@@H]2C[C@@H](O)CN2C(=O)[C@@H](NC(=O)C2(F)CC2)C(C)(C)C)c(OC2CCN(C(=O)CC3CCN(c4nccc(Sc5cnc(N6CCC(C)(CN)CC6)cn5)c4Cl)CC3)CC2)c1 [Example 71, (2S,4R)—N-(2-((1-(2-(1-(4-((5-(4-(aminomethyl)-4-methylpiperidin-1-yl)pyrazin-2-yl)thio)-3-chloropyridin-2-yl)piperidin-4-yl)acetyl)piperidin-4-yl)oxy)-4-(4-methylthiazol-5-yl)benzyl)-1-((S)-2-(1-fluorocyclopropane-1-carboxamido)-3,3-dimethylbutanoyl)-4-hydroxypyrrolidine-2-carboxamide]",60.0,99.4
"Cc1ncsc1-c1ccc(CNC(=O)[C@@H]2C[C@@H](O)CN2C(=O)[C@@H](NC(=O)C2(F)CC2)C(C)(C)C)c(OC2CCN(C(=O)CC3(O)CCN(c4nccc(Sc5cnc(N6CCC(C)(CN)CC6)cn5)c4Cl)CC3)CC2)c1 [Example 72, (2S,4R)—N-(2-((1-(2-(1-(4-((5-(4-(aminomethyl)-4-methylpiperidin-1-yl)pyrazin-2-yl)thio)-3-chloropyridin-2-yl)-4-hydroxypiperidin-4-yl)acetyl)piperidin-4-yl)oxy)-4-(4-methylthiazol-5-yl)benzyl)-1-((S)-2-(1-fluorocyclopropane-1-carboxamido)-3,3-dimethylbutanoyl)-4-hydroxypyrrolidine-2-carboxamide]",91.5,99.8
"Cc1ncsc1-c1ccc(CNC(=O)[C@@H]2C[C@@H](O)CN2C(=O)[C@@H](NC(=O)C2(F)CC2)C(C)(C)C)c(OC2CN(C(=O)C3CCN(c4nccc(Sc5cnc(N6CCC(C)(CN)CC6)cn5)c4Cl)CC3)C2)c1 [Example 73, (2S,4R)—N-(2-((1-(1-(4-((5-(4-(aminomethyl)-4-methylpiperidin-1-yl)pyrazin-2-yl)thio)-3-chloropyridin-2-yl)piperidine-4-carbonyl)azetidin-3-yl)oxy)-4-(4-methylthiazol-5-yl)benzyl)-1-((S)-2-(1-fluorocyclopropane-1-carboxamido)-3,3-dimethylbutanoyl)-4-hydroxypyrrolidine-2-carboxamide]",65.8,97.7
